In brackets after ≈: the same amount, converted by molar mass.
Assays:
[1] = system: S. aureus 270A (MRSA); experiment: In vitro activity, minimum inhibitory concentration, agar dilution, S. aureus 270A (MRSA); assay type: cell-based; conditions: Staphylococcus aureus, Mueller Hinton agar, inoculum=10^4 CFU/spot
Description: (§1) Representative compounds (A and B, above) of the present invention were tested. In vitro activity was determined by minimum inhibitory concentration by the agar dilution method in Mueller Hinton agar, inoculum=10^4 CFU/spot.

[2] = system: P. aeruginosa ATCC27853; experiment: In vitro activity, minimum inhibitory concentration, agar dilution, P. aeruginosa ATCC27853; assay type: cell-based; conditions: Pseudomonas aeruginosa, Mueller Hinton agar, inoculum=10^4 CFU/spot
Description: as §1

[3] = system: S. aureus 743 (MRSA); experiment: In vitro activity, minimum inhibitory concentration, agar dilution, S. aureus 743 (MRSA); assay type: cell-based; conditions: Staphylococcus aureus, Mueller Hinton agar, inoculum=10^4 CFU/spot
Description: as §1

[4] = system: S.aureus 6538 (MSSA); experiment: In vitro activity, minimum inhibitory concentration, agar dilution, S. aureus 6538 (MSSA); assay type: cell-based; conditions: Staphylococcus aureus, Mueller Hinton agar, inoculum=10^4 CFU/spot
Description: as §1

[5] = system: S. aureus 270 A (MRSA); experiment: In vivo efficacy, sc abscess model in mice infected with S. aureus 270 A (MRSA); conditions: 10 mg/kg ip; for Median log CFU: 3 mice, untreated 6.92
Description: In vivo efficacy was determined with a sc abscess model in mice, infected with S. aureus 270 A (MRSA). The dose (ip) was 10 mg/kg. The median log of colony forming units (CFU) was determined.

[6] = system: MRSA; experiment: In vitro activity, MIC90 against MRSA (n = 38), agar dilution; assay type: cell-based; conditions: Staphylococcus aureus, MuellerHinton agar, inoculum: 10^5 CFU/spot
Description: as §1
*Agar dilution method on MuellerHinton agar, inoculum: 10^5 CFU/spot

MIC [1]	MIC [2]	MIC [3]	MIC [4]	MIC90 [6]	Compound	activity compared with vancomycin [5]	reduction in the number of CFUs as compared to the untreated control [5]	Median log CFU [5]
2 µg/mL (≈ 3.74 µM)	2 µg/mL (≈ 3.74 µM)	2 µg/mL (≈ 3.74 µM)	0.5 µg/mL (≈ 0.935 µM)	4 µg/mL (≈ 7.48 µM)	Nc1nc(/C(=N/O)C(=O)N[C@@H]2C(=O)N3C(C(=O)O)=C(/C=C4\CCN([C@@H]5CCNC5)C4=O)CS[C@H]23)ns1 [A, (6R, 7R)-7-[(Z)-2-(5-Amino-[1,2,4]thiadiazol-3-yl)-2-hydroxyimino-acetylamino]-8-oxo-3-[(E)-(R)-2-oxo-[1,3']bipyrrolidinyl-3-ylidenemethyl]-5-thia-1-aza-bicyclo[4.2.0]oct-2-ene-2-carboxylic acid]	more active than vancomycin	more than hundred-fold reduction	4.72 log CFU
4 µg/mL (≈ 7.48 µM)	4 µg/mL (≈ 7.48 µM)	2 µg/mL (≈ 3.74 µM)	0.25 µg/mL (≈ 0.468 µM)	4 µg/mL (≈ 7.48 µM)	Nc1nc(/C(=N/O)C(=O)N[C@@H]2C(=O)N3C(C(=O)O)=C(/C=C4\CCN([C@H]5CCNC5)C4=O)CS[C@H]23)ns1 [B, (6R, 7R)-7-[(Z)-2-(5-Amino-[1,2,4]thiadiazol-3-yl)-2-hydroxyimino-acetylamino]-8-oxo-3-[(E)-(S)-2-oxo-[1,3']bipyrrolidinyl-3-ylidenemethyl]-5-thia-1-aza-bicyclo[4.2.0]oct-2-ene-2-carboxylic acid]			
					CN[C@H](CC(C)C)C(=O)N[C@H]1C(=O)N[C@@H](CC(N)=O)C(=O)N[C@H]2C(=O)N[C@H]3C(=O)N[C@H](C(=O)N[C@H](C(=O)O)c4cc(O)cc(O)c4-c4cc3ccc4O)[C@H](O)c3ccc(c(Cl)c3)Oc3cc2cc(c3O[C@@H]2O[C@H](CO)[C@@H](O)[C@H](O)[C@H]2O[C@H]2C[C@](C)(N)[C@H](O)[C@H](C)O2)Oc2ccc(cc2Cl)[C@H]1O [Vancomycin, vancomycin, reference compound]			5.28 log CFU
